Experimental data published in ChEMBL document CHEMBL1240324, “TRPM8 voltage sensor mutants reveal a mechanism for integrating thermal and chemical stimuli” (Nat Chem Biol, 2007).
Activity calls are given as the source filed them. No cut-off for these calls is given here.

How the values were obtained:
[1] = Activity at human TRPM8 S4b_M mutant expressed in HEK293 cells assessed as compound concentration causing leftward shift of voltage for half maximal activation; type: cell-based
[2] = system: Transient receptor potential cation channel subfamily M member 8 (Homo sapiens), Q7Z2W7 [L1009R]; conditions: HEK293, 100 uM
[3] = Binding affinity to human TRPM8 S4b_M mutant expressed in HEK293 cell membranes
[4] = system: Transient receptor potential cation channel subfamily M member 8 (Homo sapiens), Q7Z2W7 [Y745H]; conditions: HEK293, 100 uM
[5] = system: HEK293; assay: Displacement of [3H]menthol from human TRPM8 S4b_M5 mutant expressed in HEK293 cell membranes at 100 uM by scintillation counting

Chain of Transient receptor potential cation channel subfamily M member 8 (Homo sapiens), Q7Z2W7 [Y745H] (Q7Z2W7 whole entry Y745H): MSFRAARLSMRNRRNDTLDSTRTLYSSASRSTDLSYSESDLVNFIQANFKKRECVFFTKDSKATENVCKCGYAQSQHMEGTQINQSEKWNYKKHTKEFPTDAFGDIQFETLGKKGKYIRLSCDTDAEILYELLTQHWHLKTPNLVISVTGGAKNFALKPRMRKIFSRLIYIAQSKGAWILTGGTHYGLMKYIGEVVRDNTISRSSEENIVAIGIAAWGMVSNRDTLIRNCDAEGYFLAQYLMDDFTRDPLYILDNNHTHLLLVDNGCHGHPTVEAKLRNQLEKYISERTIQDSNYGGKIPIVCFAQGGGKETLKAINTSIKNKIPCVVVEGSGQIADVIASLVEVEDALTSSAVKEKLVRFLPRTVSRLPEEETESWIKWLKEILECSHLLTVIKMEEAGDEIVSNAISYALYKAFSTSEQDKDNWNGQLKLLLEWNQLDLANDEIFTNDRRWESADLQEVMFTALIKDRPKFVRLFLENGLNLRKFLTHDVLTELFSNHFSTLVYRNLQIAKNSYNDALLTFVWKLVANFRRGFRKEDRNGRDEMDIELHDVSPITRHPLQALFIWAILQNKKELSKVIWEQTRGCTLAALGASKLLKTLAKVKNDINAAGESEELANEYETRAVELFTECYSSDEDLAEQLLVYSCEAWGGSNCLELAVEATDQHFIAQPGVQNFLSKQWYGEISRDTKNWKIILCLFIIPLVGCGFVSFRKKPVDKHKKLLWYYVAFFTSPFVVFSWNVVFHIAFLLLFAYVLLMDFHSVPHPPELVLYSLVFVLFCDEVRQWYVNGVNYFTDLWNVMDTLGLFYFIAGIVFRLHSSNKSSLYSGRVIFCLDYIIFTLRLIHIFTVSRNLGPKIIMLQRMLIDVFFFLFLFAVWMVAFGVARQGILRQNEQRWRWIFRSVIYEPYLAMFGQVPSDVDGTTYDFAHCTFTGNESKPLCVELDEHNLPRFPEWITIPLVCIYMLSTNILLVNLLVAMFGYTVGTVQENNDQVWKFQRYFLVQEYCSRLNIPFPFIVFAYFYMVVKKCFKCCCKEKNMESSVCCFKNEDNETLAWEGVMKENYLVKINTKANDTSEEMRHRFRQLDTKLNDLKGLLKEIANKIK
Chain of Transient receptor potential cation channel subfamily M member 8 (Homo sapiens), Q7Z2W7 [L1009R] (Q7Z2W7 whole entry L1009R): as the sequence (Q7Z2W7 whole entry Y745H) above, with H745Y, L1009R counted along it

EC50 [1]: 477 µM
inhibition [2]: Active
inhibition [4]: inactive
Structure (SMILES): CC1CCC(C(C)C)C(O)C1 (stereo not given) [MENTHOL]
Kd [3]: 220 µM
inhibition [5]: inactive
